Test [1] has as its system purified human Pan T-cells. The test can be described thus: T-cell exhaustion protocol (repeated CD3/CD28 Dynabead stimulation). The format is cell-based. As to conditions: ELISA, listed as RLS-0122. As for the experimental part: Purified human pan-T-cells were subject to stimulation with Dynabeads every 48 hours over the period of 8 days with cells also receiving PIC1 peptides (2 mg/ml) at each stimulation. Cells not receiving Dynabeads were run in parallel to assess background levels of Caspase 3/7 signal. At the eighth day, cells were harvested, and the levels of Caspase 3/7 determined by ELISA.
Purified human pan-T-cells were subject to stimulation with Dynabeads every 48 hours over the period of 8 days with cells also receiving PIC1 peptides (2 mg/ml) at each stimulation. Cell supernatants were collected at each stimulation and levels of IL-2 and IFN-gamma assayed by ELISA.
T-cell exhaustion is a form of T-cell dysfunction that occurs in cancer. It is generally defined by poor effector function, reduction in cytokine release (e.g., IL-2, TNF-alpha, IFN-gamma), sustained expression of inhibitory receptors (e.g., PD-1, LAG-3, CD244, CD160) with the progressive loss of effector function due to overstimulation. Exhaustion can prevent optimal control of tumor growth. Exhausted T cells are prevalent in the tumor microenvironment (TME) and can lead to T-cell apoptosis. T-cell exhaustion is reversible and pharmaceutical inhibition of T-cell exhaustion has been considered a promising strategy by many cancer researchers. To ascertain if PIC1 peptides could reverse T-cell exhaustion and increase T cell viability and effector function, a T-cell exhaustion protocol was developed. To induce T-cell exhaustion, purified human Pan T-cells were stimulated with T-Activator CD3/CD28 Dynabeads and cells were washed and re-stimulated every 48 hours. PIC1 peptides were added to the cells after each stimulation with Dynabeads. After three to four stimulations, cells were harvested for readouts which consisted of assessing T-cell apoptosis by measuring Caspase 3/7 levels and production of cytokines IL-2 and IFN-gamma, which are indicative of T-cell functionality. […] To further evaluate if PIC1 peptides could restore T-cell functionality in cells that have undergone the exhaustion protocol, the inventors next assessed production of cytokines IL-2 and IFN-gamma. Supernatants from the cells after each stimulation was collected and the cytokines measured by ELISA. […] The lower level of IFN-gamma signal was consistently seen in this assay.

The next test concerns the target T1, VEGF (Homo sapiens, UniProt P15692).
T1 construct: Promega (bioassay)
T1 sequence (P15692 27-191 isoform P15692-4): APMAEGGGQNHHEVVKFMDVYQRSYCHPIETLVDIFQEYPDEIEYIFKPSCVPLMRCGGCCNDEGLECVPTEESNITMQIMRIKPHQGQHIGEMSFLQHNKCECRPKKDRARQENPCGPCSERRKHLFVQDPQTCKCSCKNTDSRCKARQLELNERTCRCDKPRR
Put plainly: VEGF binding ELISA plate-based assay. As to conditions: peptides 1 mg/ml. As for the experimental part: A fixed amount of PIC1 peptides (1 mg/ml) were added to the plates followed by a rabbit polyclonal antibody that recognizes the peptides and then a secondary anti-rabbit antibody conjugated with HRP. The plate was then developed by addition of TMB as the substrate for the colorimetric assay.
Angiogenesis, or the formation of new blood vessels from the established vasculature, is an essential element in tumor growth and metastasis formation. Inhibiting tumor angiogenesis is considered a major therapeutic strategy in oncology. […] The bioluminescent signal is detected in a luminometer.

Test [2] concerns classical complement pathway activation (C1q with C1r and C1s from A-498 cells). Put plainly: Classical complement activation by A-498 cell supernatant, C4a ELISA. As to conditions: increasing doses 0-8 mg/ml; listed as RLS-0122. The format is biochemical, human. As for the experimental part: Supernatants from A-498 cells were added to purified human C1q pre-incubated with increasing doses of RLS-0122 or RLS-0174 and loaded onto an IgG coated plate. Samples were then incubated for 1 hour at 37° C. After incubation samples were washed 3 times with PBS-T before the addition of purified human C4 (4 ug/ml) and incubated for 1.5 hours at 37° C. The supernatants were collected for analysis on Quidel's MicroVue Complement C4a ELISA.
Effective clear-cell renal cell carcinoma (ccRCC) therapies are needed, particularly at the metastatic stage when surgery is ineffective. Complement is a key factor in tissue inflammation, favoring cancer progression through the production of complement component 5a (C5a) (Roumenina et al., Cancer Immunol Res; 7(7) July 2019). Using data mining techniques, ccRCC has been identified as a cancer type expressing concomitantly high expression of the components that are part of the classical complement pathway. High densities of cells producing classical complement pathway components C1q and C4 and the presence of C4 activation fragment deposits in primary tumors are often correlated with poor prognosis. […] The inventors tested the ability of RLS-0122 to block complement activation in human kidney carcinoma cell line A498 system in vitro as assessed by the reduction in C4a levels. […]
(In an ELISA, binding on a coated surface is turned into a signal by an enzyme label.)

The mark [3] stands for this setting: peptides 2 mg/ml, stimulation 2.

Entries after “also recorded” stand apart in the source; their conditions may differ.

For “IAdLILEP(Sar)CCQERAA (IALILEPXCCQERAA; D-Leu; sarcosine; MOD_RES (3)..(3) D-amino acid; MOD_RES (8)..(8) Sarcosine) [PA-0122]”, the “Caspase 3/7 levels, in words” value in test [1] (peptides 2 mg/ml at each stimulation, day 8) was “very low to undetectable levels; also recorded: reduced levels”. Besides, in test [1] (setting [3]), the “IFN-gamma levels in cell supernatants, in words” value is given as “detectable at stimulation 2; also recorded: increased levels” and the “IL-2 levels in cell supernatants, in words” value is recorded as “detectable IL-2 at stimulation 2; also recorded: increased levels”. Further, in the test with VEGF, the “binding to VEGF, in words” value is reported as “binding with high affinity”. Besides, the “C4a generation, in words” value in test [2] is reported as “dose-dependently reduced the level of C4a generation; also recorded: can inhibit classical complement pathway activation”.
